The values below are quoted from earlier work in patent publication US20180125835A1, “Dosage and Use of an A2A Antagonist” (H. Lundbeck A/S, priority 2014, published 2018).

For the series the following is noted: in vivo; cited from earlier work.

The half-life is how long it takes for the measured level to halve. Regarding `Cc1ccc(-c2nc(N)nc3c2nnn3Cc2cccc(CO[C@H]3CCOC3)n2)o1` [Compound V-81444], the half-life was 5 to 7 h.
